Patent US11447522B2, “Potent soft anti-inflammatory corticosteroid compounds and uses thereof” (Bodor Laboratories, Inc., priority 2017, dated 2022)
Like-named read-outs stand apart in the source and are kept apart here.

Experiments:
TNF-α production = conditions: cited from earlier work
[1] = system: ovalbumin sensitized and challenged Brown Norway rats; assay: Airway changes of ovalbumin sensitized and challenged Brown Norway rats, intratracheal administration; type: in vivo; conditions: for AHR (airways hyperreactivity) ED50: relative response to maximal acetylcholine dose
[2] = system: TNF-α production of LPS-stimulated whole blood cells; assay: Stability: inhibition of TNF-α production with or without preincubation of the compounds in human plasma/serum; type: cell-based
Procedure: (§1) The in vitro anti-inflammatory effect of ED and its analogs was assessed using LPS-induced TNF α-release under various conditions (diluted or undiluted whole human blood, preincubation with sera) to determine the intrinsic anti-inflammatory activity and systemic biological stability of the various compounds.
(§2) Commercially available human cytokine ELISA sets were used. TNF-α and GM-CSF sets were purchased from BD Pharmingen, San Diego, Calif., USA) and the IL-1β set was obtained from R&D Systems (Minneapolis, Minn., USA). ELISA was performed according to the manufacturer's protocol. Cell-free supernatants were tested in duplicate. Detection limits were 7.8 pg/ml for TNF-α, 4.7 pg/ml for GM-CSF, and 3.9 pg/ml for IL-1β. Results were expressed as the mean percentage of inhibition. IC50 values for test compounds were calculated by linear regression.
Mononuclear cells from peripheral blood of healthy donors were isolated on Ficoll-gradient. One million cells in 0.9 ml of RPMI 1640 medium were distributed into 24-well plates and serial concentrations of the test compounds, made in fresh human serum either instantly or 18 h previously, were added (0.05 ml) together with the lipopolysaccharide (0.05 ml; 1 μg/ml final concentration). Preincubation of the compounds with serum was carried out at 37° C. Processing of the cultures was done as described above.

[3] = system: TNF α-production of LPS-stimulated blood cells; assay: TNF-α production of lipopolysaccharide-stimulated human blood; type: cell-based
Procedure: as §1, §2
Peripheral blood from healthy donors was collected aseptically into sterile heparinized (Vacutainer™) tubes. Whole blood samples from each individual were parallel used both undiluted and after 5-fold dilution with RPMI-1640 medium in every experiment. Blood samples were distributed into 24-well plates and incubated with serial concentrations of the test compounds and 1 μg/ml lipopolysaccharide for 24 h at 37° C. in a CO2 thermostat. Controls were treated with lipopolysaccharide and the vehicle (PBS or 0.01% dimethyl sulfoxide in PBS). After incubation, cell-free supernatants were separated by centrifugation (1000 g for 10 minutes) and stored at −20° C. until determination of the amount of TNF-α. Test compounds were examined in blood samples from five different individuals. Two parallel cultures per treatments were run.

[4] = system: IL-1β from the human monocyte cell line THP-1; assay: IL-1β production of stimulated THP.1 cells; type: cell-based
Procedure: as §2
THP.1 cells (human monocytic cell line: American Type Culture Collection. Rockville, Md., USA) were maintained in RPMI-1640 medium, supplemented with 10% FCS, 5×10^−5 M 2-merkapto-ethanol, 2 mM glutamine and antibiotics, and were split in every 3rd days. To examine the effect of test compounds 2×10^6 cells/well (24 well plates in 1 ml/well volume) were stimulated with 1 μg/ml LPS and 25 μg/ml silica for IL-1β production as described previously (Németh et al. 1995). The test compounds were dissolved in RPMI-1640 medium or the medium containing 0.01% DMSO. Two parallel cell cultures per treatment groups were run in three independent experiments. IL-1β levels in cell-free supernatants were determined by ELISA.

[5] = system: mitogen-induced proliferation of PBMC; assay: Proliferation of lectin-stimulated peripheral mononuclear cells; type: cell-based, human; conditions: read-out: Prolif.**: Inhibition of mitogen-induced proliferation of PBMC
Procedure: Mononuclear cells from heparinized peripheral blood of healthy donors were isolated on suitable gradient (Optiprep solution, 1.077 g/ml). Serial dilutions of the test compounds (ranging from 2×10^−6 to 2×10^−8 M) were made in 100 μl of medium per well of sterile round-bottomed 96-well microtiter plate. Control wells contained culture medium only. 100 μl of cell suspension (10^6 cells/ml), containing concanavalin A (2 μg/ml) was added to each well. […] All cultures were done in triplicate. Microtiter plates were incubated for 72 h at 37° C., in 5% CO2 containing humidified atmosphere. For the last 18 h of incubation, [^3H]thymidine was added to the cells cultures, at 0.1 μCi/well final concentration. At the end of the incubation, cells were harvested to glass microfiber filter (Whatman G/F) and associated radioactivity was determined by liquid scintillation.

receptor = conditions: scale where dexamethasone is 100; cited from earlier work
[6] = Stability in the presence of human plasma (HPLC/MS/MS); type: in vitro ADME; conditions: 37° C.
Procedure: Etiprednol dicloacetate (BNP-166) was added to freshly prepared human plasma of healthy donors at a concentration of 5 ng/ml, and were incubated at 37° C. for different intervals. After incubation the amount of the original compound (ethyl-17α-dichloroacetoxy-11β-hydroxyandostra-1,4-diene-3-one-17β-carboxylate), and one of its main metabolite, M-OH (17α,11β-dihydroxyandostra-1,4-diene-3-one-17β-carboxylate) were determined using an HPLC/MS/MS method. In brief: Fluocinolone acetonide served as internal standard (20 ng/ml), samples were extracted with a liquid-liquid extraction on Extrelut® columns, and were separated on a Purospher STAR 30×2 mm (3 μm) reversed phase column at a flow rate of 0.3 ml/min, using a linear gradient with a mobile phase system containing acetonitrile, water and acetic acid. Determination were performed on a triple quadrupole mass spectrometer (Perkin-Elmer SCIEX API 2000) supplied with an electrospray interface operated in the positive ionization mode. The multiple ion monitoring, parent→daughter ion transitions of 485.2→265.2, 375.2→265.2 and 495.2→337.2 were used for the quantification of etiprednol dicloacetate, its M-OH metabolite and for the internal standard respectively. Results are expressed as peak areas normalized to the internal control. Stability of the selected ED analogs (10, 11, 13, 17, 21, 25) were determined as described above for ED (3).

[7] = intratracheal, 2 hours prior challenge
[8] = intratracheal, 2 hours prior challenge, minimal statistically significantly effective dose
[9] = non-preincubated in human plasma, read-out: Stability*** c: Inhibition of TNF-α production of LPS-stimulated whole blood cells
[10] = preincubated overnight in human plasma, read-out: Stability*** d: Inhibition of TNF-α production of LPS-stimulated whole blood cells
[11] = diluted blood 1:5, read-out: TNFα* a: Inhibition of TNF α-production of LPS-stimulated blood cells
[12] = undiluted blood, read-out: TNFα* b: Inhibition of TNF α-production of LPS-stimulated blood cells

## CCOC(=O)[C@@]1(OC(=O)C(Cl)Cl)CC[C@H]2[C@@H]3CCC4=CC(=O)C=C[C@]4(C)[C@H]3[C@@H](O)C[C@@]21C [Compound 3, Ethyl 17α-dichloroacetoxy-11β-hydroxyandrosta-1,4-diene-3-one-17β-carboxylate]
TNF-α production; five days
  loss of activity during incubation: 100 fold
TNF-α production; two days
  loss of activity during incubation: five-fold
[1]; [7]
  Edema formation ED50: 2.9 µg/kg
  Eosinophilia BALF ED50: ≤0.1 µg/kg
  Eosinophilia Peribronchial ED50: 0.62 µg/kg
  Eosinophilia Perivascular ED50: >100 µg/kg
  Mucus production ED50: 13.8 µg/kg
  Mucus production, second line (dose type not given): 0.1 µg/kg
  AHR (airways hyperreactivity) ED50: ≈1.0 μg/kg
[1]; [8]
  AHR (airways hyperreactivity) MSED: ≈1.0 μg/kg
  Edema formation MSED: 0.1 µg/kg
  Eosinophilia BALF MSED: 0.1 µg/kg
  Eosinophilia Peribronchial MSED: 0.1 µg/kg
  Eosinophilia Perivascular MSED: 1.0 µg/kg
[2]; [9]
  IC50: 73 nM
[2]; [10]
  IC50: 2700 nM
[3]; [11]
  IC50: 27 nM
[3]; [12]
  IC50: 103 nM
[4]
  inhibition of the liberation of IL-1β: significantly inhibited
[5]
  IC50: 10 nM
receptor
  relative receptor binding activity (RRBA): ~200

## C[C@@H]1C[C@H]2[C@@H]3C[C@H](F)C4=CC(=O)C=C[C@]4(C)[C@@]3(F)[C@@H](O)C[C@]2(C)[C@@]1(OC(=O)C(Cl)Cl)C(=O)SCF [Compound 25, S-Fluoromethyl 17α-dichloroacetoxy-6α,9α-difluoro-11β-hydroxy-16α-methyl-3-oxoandrosta-1,4-diene-17β-carbothioate]
[6]
  stability in the presence of human plasma: particularly stable
[1]; Table 2 parameters
  overall in vivo activity compared with the parent steroid: overall superior to FLU
[1]; [7]
  Edema formation ED50: <1.0 µg/kg
  Eosinophilia BALF ED50: 16.1 µg/kg
  Eosinophilia Perivascular ED50: 83.8 µg/kg
  Mucus production ED50: 7.42 µg/kg
  Mucus production, second line (dose type not given): 100 µg/kg
  AHR (airways hyperreactivity) ED50: 3.75 µg/kg
[1]; intratracheal, 2 hours prior challenge, broncho-alveolar lavage fluid
  BALF protein ED50: 0.64 µg/kg
[1]; [8]
  AHR (airways hyperreactivity) MSED: 10 µg/kg
  BALF protein MSED: 100 µg/kg
  Edema formation MSED: 1.0 µg/kg
  Eosinophilia BALF MSED: 1.0 µg/kg
  Eosinophilia Perivascular MSED: 1.0 µg/kg
[2]; [9]
  IC50: 1 nM
[2]; [10]
  IC50: 87 nM
[3]; [11]
  IC50: 2 nM
[3]; [12]
  IC50: 3 nM
[5]
  IC50: 0.1 nM

## C[C@H]1C[C@H]2[C@@H]3C[C@H](F)C4=CC(=O)C=C[C@]4(C)[C@@]3(F)[C@@H](O)C[C@]2(C)[C@@]1(OC(=O)C(Cl)Cl)C(=O)OCCO [Compound 17, 2-Hydroxyethyl 6α,9α-difluoro-17α-dichloroacetoxy-16β-methyl-11β-hydroxy-3-oxoandrosta-1,4-diene-17β-carboxylate]
[6]
  stability in the presence of human plasma: particularly stable
[2]; [9]
  IC50: 1.9 nM
[2]; [10]
  IC50: 19.2 nM
[2]; see Table 1
  potency and softness compared with the corresponding compounds 11 and 15: more potent but softer
[3]; [11]
  IC50: < 1 nM
[3]; [12]
  IC50: 3.7 ± 2.6 nM
[5]
  IC50: 0.13 ± 0.02 nM

## CCOC(=O)O[C@]1(C(=O)OCCl)CCC2C3CCC4=CC(=O)C=CC4(C)C3[C@@H](O)CC21C (stereo partly drawn) [LE, chloromethyl 17α-ethoxycarbonyloxy-11β-hydroxyandrosta-1,4-dien-3-one-17β-carboxylate]
receptor
  relative receptor binding activity (RRBA): 160
